Data from patent US10421779B2, “Carbazole compound having anti-virus activity” (priority 2016, dated 2019).

How the values were obtained:
Assay type in all cases: cell-based
[1] = system: hepatitis C virus mutant L31V of the NS5A region; assay: Efficacy on resistant mutant L31V; conditions: read-out: EC50 L31V
Excerpt: (§1) As a mutant resistant to hepatitis C virus, L31V and Y93H of the NS5A region, and double mutants thereof were applied.

[2] = system: hepatitis C virus mutant Y93H of the NS5A region; assay: Efficacy on resistant mutant Y93H; conditions: read-out: EC50 Y93H
Excerpt: as §1

[3] = system: hepatitis C virus double mutant L31V and Y93H of the NS5A region; assay: Efficacy on resistant double mutant (L31V and Y93H); conditions: read-out: EC50 Double mutant
Excerpt: as §1

[4] = system: HCV genotype 1 b (HCV replicon system); assay: HCV replicon system genotype 1b, Renilla luciferase activity; conditions: Hepatitis C virus, 72 h; HCV genotype 1b replicon, Rluc, 3 days; read-out: Replicon EC50 1b type
Outline: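 Genotype 1b replicon carrying Renilla luciferase and 1b non-structural genes, treated with compound at various concentrations. Luciferase activity read after 3 days relative to control to derive EC50.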

[5] = system: HCV genotype 2a (HCV cell culture system, HCVcc); assay: HCVcc genotype 2a JFH1 (JFH 5a-Rluc) virus in Huh7.5.1 cells, luciferase assay; conditions: Hepatitis C virus, Huh-7.5.1, 72 h, HCV genotype 2a JFH 5a-Rluc, 3 days, read-out: Replicon EC50 2a type
Method: (§2) From human liver cells (Huh7.5.1 cell) infected by hepatitis C virus, the anti-virus effects by the compound of the present invention were measured. From HCV genotype 1 b (HCV replicon system), genotype 2a (HCV cell culture system, HCVcc), and genotype 3a, the EC50 values were measured.
In order to measure the EC50 value from HCV genotype 2a, a luciferase assay was used. A JFH1 clone (JFH 5a-Rluc) virus constructed to have a Renilla luciferase enzyme (Rluc) gene in NS5A protein was infected with Huh7.5.1 cell being a host cell, and then the EC50 value was measured by taking cells grown for 3 days by treating the experimental compound under various concentration conditions, and analyzing the activity degree of the luciferase.

[6] = system: HCV genotype 3a (HCV replicon system); assay: HCV replicon system genotype 3a, firefly luciferase activity; conditions: Hepatitis C virus, 72 h; HCV genotype 3a replicon, Fluc, 3 days; read-out: Replicon EC50 3a type
Method: as §2
In order to measure the EC50 value from genotype 3a, the value was measured through the luciferase activity. A HCV replicon system having firefly luciferase (Fluc) genes and genotype 3a non-structure genes was used. The HCV replicon system having the genes as described above was used to treat the experimental compound under various concentration conditions, and then 3 days later, the EC50 value was measured by comparing the luciferase activity with that of the control.

Structure (SMILES) | EC50 [1] [nM] | EC50 [2] [nM] | EC50 [3] [nM] | EC50 [4] [nM] | EC50 [5] [nM] | EC50 [6] [nM]
COC(=O)N[C@H](C(=O)N1CCC[C@H]1c1nc(-c2ccc(-c3ccc(-c4c[nH]c([C@@H]5CCCN5C(=O)[C@@H](NC(=O)OC)C(C)C)n4)cc3)cc2)c[nH]1)C(C)C [BMS-790052, reference compound] | 0.1 to 1 | 1 to 10 | > 1000 | – | – | –
COC(=O)N[C@@H](C(=O)N1CCC[C@H]1C(=O)Nc1ccc2c3ccc(NC(=O)[C@@H]4CCCN4C(=O)[C@H](NC(=O)OC)c4ccccc4)cc3n(Cc3ccccc3)c2c1)c1ccccc1 [Example 13, dimethyl ((1R,1′R)-((2S,2′S)-(((9-benzyl-9H-carbazole-2,7-diyl)bis(azanediyl))bis(carbonyl))bis(pyrrolidine-2,1-diyl))bis(2-oxo-1-phenylethane-2,1-diyl))dicarbamate] | 0.1 to 1 | 100 to 1000 | > 1000 | 0.0246 | – | –
COC(=O)N[C@@H](C(=O)N1CCC[C@H]1C(=O)Nc1ccc2c3ccc(NC(=O)[C@@H]4CCCN4C(=O)[C@H](NC(=O)OC)c4ccccc4)cc3n(Cc3ccc(OC)cc3)c2c1)c1ccccc1 [Example 14, dimethyl ((1R,1′R)-((2S,2′S)-(((9-(4-methoxybenzyl)-9H-carbazole-2,7-diyl)bis(azanediyl))bis(carbonyl))bis(pyrrolidine-2,1-diyl))bis(2-oxo-1-phenylethane-2,1-diyl))dicarbamate] | 0.1 to 1 | 100 to 1000 | > 1000 | 0.0203 | – | –
COC(=O)N[C@@H](C(=O)N1CCC[C@H]1C(=O)Nc1ccc2c3ccc(NC(=O)[C@@H]4CCCN4C(=O)[C@H](NC(=O)OC)c4ccccc4)cc3n(C(C)c3ccccc3)c2c1)c1ccccc1 (stereo partly drawn) [Example 15, dimethyl ((1R,1′R)-((2S,2′S)-(((9-(1-phenylethyl)-9H-carbazole-2,7-diyl)bis(azanediyl))bis(carbonyl))bis(pyrrolidine-2,1-diyl))bis(2-oxo-1-phenylethane-2,1-diyl))dicarbamate] | < 0.1 | 10 to 100 | > 1000 | 0.0157 | – | –
COC(=O)N[C@@H](C(=O)N1CCC[C@H]1C(=O)Nc1ccc2c3ccc(NC(=O)[C@@H]4CCCN4C(=O)[C@H](NC(=O)OC)c4ccccc4)cc3n(CC3CC3)c2c1)c1ccccc1 [Example 16, dimethyl ((1R,1′R)-((2S,2′S)-(((9-(cyclopropylmethyl)-9H-carbazole-2,7-diyl)bis(azanediyl))bis(carbonyl))bis(pyrrolidine-2,1-diyl))bis(2-oxo-1-phenylethane-2,1-diyl))dicarbamate] | 1 to 10 | 10 to 100 | > 1000 | 0.0182 | – | –
COC(=O)N[C@@H](C(=O)N1CCC[C@H]1C(=O)Nc1ccc2c3ccc(NC(=O)[C@@H]4CCCN4C(=O)[C@H](NC(=O)OC)c4ccccc4)cc3n(Cc3ccncc3)c2c1)c1ccccc1 [Example 19, dimethyl ((1R,1′R)-((2S,2′S)-(((9-(pyridine-4-ylmethyl)-9H-carbazole-2,7-diyl)bis(azanediyl))bis(carbonyl))bis(pyrrolidine-2,1-diyl))bis(2-oxo-1-phenylethane-2,1-diyl))dicarbamate] | 1 to 10 | > 1000 | > 1000 | 0.243 | – | –
COC(=O)N[C@@H](C(=O)N1CCC[C@H]1C(=O)Nc1ccc2c3ccc(NC(=O)[C@@H]4CCCN4C(=O)[C@H](NC(=O)OC)c4ccccc4)cc3n(Cc3cccc(C)n3)c2c1)c1ccccc1 [Example 20, dimethyl ((1R,1′R)-((2S,2′S)-(((9-((6-methylpyridine-2-yl)methyl)-9H-carbazole-2,7-diyl)bis(azanediyl))bis(carbonyl))bis(pyrrolidine-2,1-diyl))bis(2-oxo-1-phenylethane-2,1-diyl))dicarbamate] | 10 to 100 | > 1000 | > 1000 | 0.222 | – | –
COCCn1c2cc(NC(=O)[C@@H]3CCCN3C(=O)[C@H](NC(=O)OC)c3ccccc3)ccc2c2ccc(NC(=O)[C@@H]3CCCN3C(=O)[C@H](NC(=O)OC)c3ccccc3)cc21 [Example 21, dimethyl ((1R,1′R)-((2S,2′S)-(((9-(2-methoxyethyl)-9H-carbazole-2,7-diyl)bis(azanediyl))bis(carbonyl))bis(pyrrolidine-2,1-diyl))bis(2-oxo-1-phenylethane-2,1-diyl))dicarbamate] | 10 to 100 | 100 to 1000 | > 1000 | 0.111 | – | –
COC(=O)N[C@@H](C(=O)N1CCC[C@H]1C(=O)Nc1ccc2c3ccc(NC(=O)[C@@H]4CCCN4C(=O)[C@H](NC(=O)OC)c4ccccc4)cc3n(CCCCCCCCCCN3CCOCC3)c2c1)c1ccccc1 [Example 34, dimethyl ((1R,1′R)-((2S,2′S)-(((9-(10-morpholinodecyl)-9H-carbazole-2,7-diyl)bis(azanediyl))bis(carbonyl))bis(pyrrolidine-2,1-diyl))bis(2-oxo-1-phenylethane-2,1-diyl))carbamate] | < 0.1 | 100 to 1000 | – | 0.01 to 0.1 | 1 to 10 | 0.01 to 0.1
CCCCCCCCCC(c1ccccc1)n1c2cc(NC(=O)[C@@H]3CCCN3C(=O)[C@H](NC(=O)OC)c3ccccc3)ccc2c2ccc(NC(=O)[C@@H]3CCCN3C(=O)[C@H](NC(=O)OC)c3ccccc3)cc21 (stereo partly drawn) [Example 42, dimethyl ((1R,1′R)-((2S,2′S)-(((9-(1-phenyldecyl)-9H-carbazole-2,7-diyl)bis(azanediyl))bis(carbonyl))bis(pyrrolidine-2,1-diyl))bis(2-oxo-1-phenylethane-2,1-diyl))dicarbamate] | 0.1 to 1 | 100 to 1000 | – | 0.00124 | 10 to 100 | 0.0329
